Laboratory results published in US7989620B2, “Hydantoin derivatives for the treatment of obstructive airway diseases” (AstraZeneca AB, priority 2004, dated 2011).
pIC50: −log10 of the molar value. Converted amounts (≈) assume the structure as drawn.

Experiments:
[1] = Determination of solubility in 0.1M phosphate buffer, pH 7.4; conditions: 20 °C, pH 7.4, aqueous buffer, thermodynamic from solid
Method: Protocol for Determination of Solubility
The test compound (1 mg) was weighed into a 2 mL glass vial with a screw cap and 0.1 M phosphate buffer pH 7.4. (1.00 mL) was added. The sample vial was then sonicated for about 10 minutes and then placed on a shake board overnight at 20° C. The contents of the sample vial were then filtered through a Millipore Millex-LH 0.45 μm filter into a new 2 mL glass vial to give a clear solution. The clear solution (40 μL) was transferred to a new 2 mL glass vial and diluted with 0.1 M phosphate buffer, pH 7.4 (960 μL).
A standard calibration curve for each particular test compound was established using solutions of known concentration. These solutions of known concentration were normally chosen to have concentrations of ˜10 μg/mL and ˜50 μg/mL. They were prepared by dissolving a known weight of the compound in 99.5% ethanol (500 μL) and then sonicating for one minute if necessary. If the compound was still not completely dissolved, DMSO (500 μL) was added and the mixture sonicated for an additional one minute. The resulting solution was then diluted to the appropriate volume with a mixture of acetonitrile/100 mM ammonium acetate pH 5.5 20-50/80-50. If necessary, a further, more dilute, standard solution was prepared by dilution.

[2] = biological target: T1, Recombinant human MMP 12 catalytic domain (Homo sapiens, UniProt P39900); assay: Isolated enzyme assay MMP12; type: biochemical; conditions: read-out: hMMP12 IC50
T1 construct: Recombinant human MMP 12 catalytic domain; made in house
T1 sequence (P39900 106-263 limits assumed): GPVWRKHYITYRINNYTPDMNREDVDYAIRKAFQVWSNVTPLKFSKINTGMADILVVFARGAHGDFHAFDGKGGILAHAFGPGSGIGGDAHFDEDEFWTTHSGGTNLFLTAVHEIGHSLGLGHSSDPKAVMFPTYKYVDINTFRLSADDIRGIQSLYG
Method: Recombinant human MMP 12 catalytic domain may be expressed and purified as described by Parkar A. A. et al, (2000), Protein Expression and Purification, 20, 152. The purified enzyme can be used to monitor inhibitors of activity as follows: MMP12 (50 ng/ml final concentration) is incubated for 60 minutes at room temperature with the synthetic substrate Mca-Pro-Cha-Gly-Nva-His-Ala-Dpa-NH2 (10 μM) in assay buffer (0.1M “Tris-HCP” (trade mark) buffer, pH 7.3 containing 0.1M NaCl, 20 mM CaCl2, 0.020 mM ZnCl and 0.05% (w/v) “Brij 35” (trade mark) detergent) in the presence (10 concentrations) or absence of inhibitors. Activity is determined by measuring the fluorescence at λex 320 nm and λem 405 nm. Percent inhibition is calculated as follows: % Inhibition is equal to the [Fluorescenceplus inhibitor−Fluorescencebackground] divided by the [Fluorescenceminus inhibitor−Fluorescencebackground]. MMP8

[3] = biological target: T2, Recombinant human MMP9 catalytic domain (Homo sapiens, UniProt P14780); assay: Isolated enzyme assay MMP9; type: biochemical; conditions: read-out: hMMP9 IC50
T2 sequence (P14780 with tags, fused parts or gaps DEL216-390 limits assumed): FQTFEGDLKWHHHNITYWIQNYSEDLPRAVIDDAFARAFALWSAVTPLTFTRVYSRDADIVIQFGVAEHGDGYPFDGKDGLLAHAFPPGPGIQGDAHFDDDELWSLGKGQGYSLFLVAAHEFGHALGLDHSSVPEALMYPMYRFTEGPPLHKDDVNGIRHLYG
Method: Recombinant human MMP9 catalytic domain was expressed and then purified by Zn chelate column chromatography followed by hydroxamate affinity column chromatography. The enzyme can be used to monitor inhibitors of activity as follows: MMP9 (5 ng/ml final concentration) is incubated for 30 minutes at RT with the synthetic substrate Mca-Pro-Cha-Gly-Nva-His-Ala-Dpa-NH2 (5 μM) in assay buffer (0.1 M “Tris-HCl” (trade mark) buffer, pH 7.3 containing 0.1M NaCl, 20 mM CaCl2, 0.020 mM ZnCl and 0.05% (w/v) “Brij 35” (trade mark) detergent) in the presence (10 concentrations) or absence of inhibitors. Activity is determined by measuring the fluorescence at λex 320 nm and λem 405 nm. Percent inhibition is calculated as follows: % Inhibition is equal to the [Fluorescenceplus inhibitor−Fluorescencebackground] divided by the [Fluorescenceminus inhibitor−Fluorescencebackground]. MMP14
A protocol for testing against other matrix metalloproteinases, including MMP9, using expressed and purified pro MMP is described, for instance, by C. Graham Knight et al., (1992) FEBS Lett., 296(3), 263-266.

[4] = biological target: T3, Recombinant human MMP19 catalytic domain (Homo sapiens, UniProt Q99542); assay: Isolated enzyme assay MMP19; type: biochemical; conditions: read-out: hMMP19 IC50
T3 construct: Recombinant human MMP19 catalytic domain; made in house
T3 sequence (Q99542 98-256 limits assumed): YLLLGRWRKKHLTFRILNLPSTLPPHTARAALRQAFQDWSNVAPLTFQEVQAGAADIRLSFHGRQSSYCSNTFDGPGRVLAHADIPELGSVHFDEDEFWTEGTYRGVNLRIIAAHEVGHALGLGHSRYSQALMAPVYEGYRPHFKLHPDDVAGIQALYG
Method: Recombinant human MMP19 catalytic domain may be expressed and purified as described by Parkar A. A. et al, (2000), Protein Expression and Purification, 20:152. The purified enzyme can be used to monitor inhibitors of activity as follows: MMP19 (40 ng/ml final concentration) is incubated for 120 minutes at 35° C. with the synthetic substrate Mca-Pro-Leu-Ala-Nva-Dpa-Ala-Arg-NH2 (5 μM) in assay buffer (0.1M “Tris-HCl ” (trade mark) buffer, pH 7.3 containing 0.1M NaCl, 20 mM CaCl2, 0.020 mM ZnCl and 0.05% (w/v) “Brij 35” (trade mark) detergent) in the presence (5 concentrations) or absence of inhibitors. Activity is determined by measuring the fluorescence at λex 320 nm and λem 405 nm. Percent inhibition is calculated as follows: % Inhibition is equal to the [Fluorescenceplus inhibitor−Fluorescencebackground] divided by the [Fluorescenceminus inhibitor−Fluorescencebackground].

plasma protein = assay: Plasma protein binding by ultrafiltration; conditions: 10 μM, room temperature
Method: Plasma protein binding was determined by ultrafiltration in an automated 96 well format assay. On each test occasion the plasma protein binding of a reference compound (budesonide) was monitored in parallel.
Test compounds (10 mM dissolved in DMSO) were added to plasma to a final concentration of 10 μM and equilibrated at room temperature for 10 minutes. 350 μL of the plasma was transferred to an ultrafiltration plate, Microcon-96 (10 kDa cutoff, Millipore). The ultrafiltration plate was centrifuged at 3000 G for 70 minutes at room temperature. After centrifugation, the concentration of the compounds in the obtained plasma water (the unbound fraction) was determined by LC-MS/MS using a 3-point calibration curve and compared to the concentration in the original spiked plasma.
The analyses were performed using a gradient chromatographic system with acetic acid/acetonitrile as mobile phases.

hMMP8 = biological target: T4, hMMP8 (Homo sapiens, UniProt P22894); assay: Isolated enzyme assay MMP8; type: biochemical
T4 construct: purchased Calbiochem
T4 sequence (P22894 101-467): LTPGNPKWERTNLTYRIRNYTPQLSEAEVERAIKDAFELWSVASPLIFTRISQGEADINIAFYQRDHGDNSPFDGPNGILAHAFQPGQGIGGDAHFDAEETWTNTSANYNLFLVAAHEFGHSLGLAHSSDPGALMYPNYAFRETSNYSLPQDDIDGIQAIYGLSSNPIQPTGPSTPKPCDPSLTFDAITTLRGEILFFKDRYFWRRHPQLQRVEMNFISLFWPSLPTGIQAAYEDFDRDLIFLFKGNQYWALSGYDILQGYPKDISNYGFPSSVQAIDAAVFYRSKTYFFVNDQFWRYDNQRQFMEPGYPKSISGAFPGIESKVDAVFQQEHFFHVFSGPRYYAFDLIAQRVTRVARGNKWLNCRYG
Method: Purified pro-MMP8 is purchased from Calbiochem. The enzyme (at 10 μg/ml) is activated by p-amino-phenyl-mercuric acetate (APMA) at 1 mM for 2.5 h, 35° C. The activated enzyme can be used to monitor inhibitors of activity as follows: MMP8 (200 ng/ml final concentration) is incubated for 90 minutes at 35° C. (80% H2O) with the synthetic substrate Mca-Pro-Cha-Gly-Nva-His-Ala-Dpa-NH2 (12.5 μM) in assay buffer (0.1M “Tris-HCl” (trade mark) buffer, pH 7.5 containing 0.1M NaCl, 30 mM CaCl2, 0.040 mM ZnCl and 0.05% (w/v) “Brij 35” (trade mark) detergent) in the presence (10 concentrations) or absence of inhibitors. Activity is determined by measuring the fluorescence at λex 320 nm and λem 405 nm. Percent inhibition is calculated as follows: % Inhibition is equal to the [Fluorescenceplus inhibitor−Fluorescencebackground] divided by the [Fluorescenceminus inhibitor−Fluorescencebackground]. MMP9

[5] = biological target: T5, Recombinant human MMP 14 catalytic domain (Homo sapiens, UniProt P50281); assay: Isolated enzyme assay MMP14; type: biochemical; conditions: read-out: hMMP14 IC50
T5 construct: Recombinant human MMP 14 catalytic domain; made in house
Method: Recombinant human MMP 14 catalytic domain may be expressed and purified as described by Parkar A. A. et al, (2000), Protein Expression and Purification, 20, 152. The purified enzyme can be used to monitor inhibitors of activity as follows: MMP14 (10 ng/ml final concentration) is incubated for 60 minutes at room temperature with the synthetic substrate Mca-Pro-Cha-Gly-Nva-His-Ala-Dpa-NH2 (10 μM) in assay buffer (0.1M “Tris-HCl” (trade mark) buffer, pH 7.5 containing 0.1M NaCl, 20 mM CaCl2, 0.020 mM ZnCl and 0.05% (w/v) “Brij 35” (trade mark) detergent) in the presence (5 concentrations) or absence of inhibitors. Activity is determined by measuring the fluorescence at λex 320 nm and λem 405 nm. Percent inhibition is calculated as follows: % Inhibition is equal to the [Fluorescenceplus inhibitor−Fluorescencebackground] divided by the [Fluorescenceminus inhibitor−Fluorescencebackground].

Row | Structure (SMILES) | solubility [1] | pIC50 [2] | pIC50 [3] | pIC50 [4] | Protein binding (% free) (plasma protein) | pIC50 (hMMP8) | pIC50 [5] | Solubility pH 7.4
1 | C[C@]1(CS(=O)(=O)N2CC=C(C#Cc3ccc(Cl)cc3)CC2)NC(=O)NC1=O [(5S)-5-({[4-[(4-chlorophenyl)ethynyl]-3,6-dihydropyridin-1(2H)-yl]sulfonyl}methyl)-5-methylimidazolidine-2,4-dione, reference compound] | 49 µM (≈ 20 µg/mL) | 8.70 | 8.05 | 5.40 | 1.75 % free | 6.74 | 5.37 | –
2 | Cc1ccc(C#CC2=CCN(S(=O)(=O)C[C@@]3(C)NC(=O)NC3=O)CC2)cc1 [(5S)-5-methyl-5-({[4-[(4-methylphenyl)ethynyl]-3,6-dihydropyridin-1(2H)-yl]sulfonyl}methyl)imidazolidine-2,4-dione, reference compound] | 72 µM (≈ 27.9 µg/mL) | 8.52 | 7.47 | 5.71 | 2.25 % free | 6.42 | 5.35 | –
3 | C[C@]1(CS(=O)(=O)N2CC=C(C#Cc3cnc(C4CC4)nc3)CC2)NC(=O)NC1=O [Example 1, (5S)-5-({[4-[(2-Cyclopropylpyrimidin-5-yl)ethynyl]-3,6-dihydropyridin-1(2H) -yl]sulfonyl}methyl)-5-methylimidazolidine-2,4-dione] | 396 µM (≈ 165 µg/mL) | 8.22 | 8.30 | – | 18 % free | 5.60 | < 5.00 | –

Now from value to compound:

Row | solubility [1] | pIC50 [2] | pIC50 [3] | pIC50 [4] | Protein binding (% free) (plasma protein) | pIC50 (hMMP8) | pIC50 [5] | Solubility pH 7.4 | Structure (SMILES)
4 | – | 8.22 | 8.30 | 5.10 | – | 6.26 | < 5.00 | 118 μM | C[C@]1(CS(=O)(=O)N2CC=C(C#Cc3cnc(C(F)(F)F)nc3)CC2)NC(=O)NC1=O [Example 3]
5 | 91 µM | 8.05 | 8.05 | – | 47 % free | 5.94 | < 5.00 | – | CCc1ncc(C#CC2=CCN(S(=O)(=O)C[C@@]3(C)NC(=O)NC3=O)CC2)cn1.O=C(O)C(F)(F)F [Example 5, (5S)-5-({[4-[(2-Ethylpyrimidin-5-yl)ethynyl]-3,6-dihydropyridin-1(2H) -yl]sulfonyl}methyl)-5-methylimidazolidine-2,4-dione trifluoroacetate]
